System: V79 cell line
Assay: MTT cytotoxicity test
Type: cell-based, Cricetulus griseus
Conditions: V79 cells, 24 h, tested range 100–1000 µM; viability below 70% indicates cytotoxicity
Experimental: Cell viability below 70% indicates cytotoxicity.
V79 cells (Cricetulus griseus lung fibroblast cell line) (European Collection of Cell Culture) were grown in MEM (PAN-Biotech, Aidenbach, Germany) containing 2 mM glutamine (Sigma Aldrich, Darmstadt, Germany)), 1% non-essential amino acids (Biological Industries, Cromwell, U.S), 10% FBS (Biowest, Nuaillé, France), and 100 units/mL penicillin and […] (Biological Industries, Cromwell, U.S). Cells were plated and grown in an incubator at 37 °C with 5% CO2 to 80% confluence before the initiation of the assay.
V79 cells were seeded at a density of 1 × 10^4 cells per well and were incubated for 24 h. After 24 h, the medium was removed from the wells, and cells were exposed to the compound solutions over a range of concentrations or nothing but culture medium (blank control). Cells were further incubated for an additional 24 h. At the end, the medium was removed and MTT solution (0.75 mg/mL) was added. Next, plates were incubated in the dark for 2 h at 37 °C. Then, the MTT solution was removed and DMSO was added to each well. Plates were incubated for 10 min at room temperature. The absorbance at 570 nm was measured on a microplate reader. Cell viability was expressed as a percentage of the control values (blank).

| Structure (SMILES) | Cytotoxicity (in words) |
| --- | --- |
| CCOP(=O)(Cc1ccccc1CN)OCC [8a] | Non-toxic |
| CCOP(=O)(Cc1cccc(CN)c1)OCC [8b] | Non-toxic |
| CCOP(=O)(Cc1ccc(CN)cc1)OCC [8c] | Non-toxic |
